Assay results published in patent publication US20220288110A1, “DRUG TREATMENT AND BIOMARKER PANEL TARGETED TO DISEASES DUE TO MULT[…] OF […]” (priority 2021, published 2022).
Several values for one entry are separate records, joined by “and”; a condition that tells them apart may be missing. Equal entries are not always repeated.

Test system: Severe Acute Respiratory Syndrome-Associated Coronavirus (SARS-CoV-1) Urbani strain
Parameters: species or system BALB/C mice
Settings: in vivo

polyinosinic: polycytidylic acid
relative efficacy in reducing viral load in mouse lung (in words): lower viral titers at the 3-day mark
order of efficacy by percent reduction in viral load (mouse): H>G>F>A>D>B=C>I>J>E
virtual linear slope of viral reduction beyond 5 days post exposure: day mark at which it converged (mouse): 7 days
Lung virus titer (mouse, ip, 10 mg/kg/day): 7.2 CC ID/50 (Log 10) and 7.0 CC ID/50 (Log 10) and 6.5 CC ID/50 (Log 10) and 6.0 CC ID/50 (Log 10) and 6.2 CC ID/50 (Log 10)
percent reduction in viral load (mouse, ip, 10 mg/kg/day): 11.8%
